Columns and labels:
[1] = target: human cloned dopamine receptor D2L (Homo sapiens, UniProt P14416); conditions: R(+) versus S(−)
Description: (§1) Eight concentrations were tested: 50 nM, 100 nM, 500 nM, 1 μM, 5 μM, 10 μM, 50 μM, 100 μM. These concentrations were tested in either CHO (Chinese hamster ovary) or HEK293 (human embryonic kidney) cell lines expressing human cloned dopamine receptors (D1, D2S, D2L, D3, D4, D5). The radio-ligand in each case was either [^3H] spiperone or [^3H] SCH23390 (a classic D1 dopamine receptor antagonist R-(+)-7-Chloro-8-hydroxy-3-methyl-1-phenyl-2,3,4,5-tetrahydro-1H-3-benzazepine hydrochloride), both antagonists at 0.3 nM. Incubation was for 60 minutes, and data were collected for 2 repeats using scintillation counting.

[2] = target: human cloned dopamine receptor D2S (Homo sapiens, UniProt P14416); conditions: R(+) versus S(−)
Chain of human cloned dopamine receptor D2S (P14416 1-414 isoform P14416-2): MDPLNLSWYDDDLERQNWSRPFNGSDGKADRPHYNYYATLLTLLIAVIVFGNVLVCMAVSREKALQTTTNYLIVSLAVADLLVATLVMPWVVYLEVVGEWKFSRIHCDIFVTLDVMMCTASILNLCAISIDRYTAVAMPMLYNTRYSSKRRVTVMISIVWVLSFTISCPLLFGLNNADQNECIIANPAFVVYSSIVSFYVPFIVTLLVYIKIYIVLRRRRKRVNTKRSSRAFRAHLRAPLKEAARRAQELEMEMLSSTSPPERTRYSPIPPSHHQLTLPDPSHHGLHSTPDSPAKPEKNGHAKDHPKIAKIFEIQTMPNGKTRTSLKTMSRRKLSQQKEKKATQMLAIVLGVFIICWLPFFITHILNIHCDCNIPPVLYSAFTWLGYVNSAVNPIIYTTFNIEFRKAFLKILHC
Description: as §1

[3] = target: human cloned dopamine receptor D3 (Homo sapiens, UniProt P35462); assay: biochemical
Chain of human cloned dopamine receptor D3 (P35462 whole entry): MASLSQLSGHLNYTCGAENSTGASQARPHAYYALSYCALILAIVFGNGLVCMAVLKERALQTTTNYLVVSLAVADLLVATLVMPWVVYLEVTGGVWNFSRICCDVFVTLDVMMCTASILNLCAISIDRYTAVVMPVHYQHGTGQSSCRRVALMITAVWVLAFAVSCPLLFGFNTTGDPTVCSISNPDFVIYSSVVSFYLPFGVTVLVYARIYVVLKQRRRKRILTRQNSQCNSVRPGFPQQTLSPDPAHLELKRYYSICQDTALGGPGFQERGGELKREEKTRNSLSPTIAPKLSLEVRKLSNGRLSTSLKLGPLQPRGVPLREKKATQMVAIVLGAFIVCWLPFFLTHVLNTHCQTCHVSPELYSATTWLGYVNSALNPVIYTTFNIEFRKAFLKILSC
Description: as §1

[4] = target: human cloned dopamine receptor D5 (Homo sapiens, UniProt P21918); assay: biochemical
Chain of human cloned dopamine receptor D5 (P21918 whole entry): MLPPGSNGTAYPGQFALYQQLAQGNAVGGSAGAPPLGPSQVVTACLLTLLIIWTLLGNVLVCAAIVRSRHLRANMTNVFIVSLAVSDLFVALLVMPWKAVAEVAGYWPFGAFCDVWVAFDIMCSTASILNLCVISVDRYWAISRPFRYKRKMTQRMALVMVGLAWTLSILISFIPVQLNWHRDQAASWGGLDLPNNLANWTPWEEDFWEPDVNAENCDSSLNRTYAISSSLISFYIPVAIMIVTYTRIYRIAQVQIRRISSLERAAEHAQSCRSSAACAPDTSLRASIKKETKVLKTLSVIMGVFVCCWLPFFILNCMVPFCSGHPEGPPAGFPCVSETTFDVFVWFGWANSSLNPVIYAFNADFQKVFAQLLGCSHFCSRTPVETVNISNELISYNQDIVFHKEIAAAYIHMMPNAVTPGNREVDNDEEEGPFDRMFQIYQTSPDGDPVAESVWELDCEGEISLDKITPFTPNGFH
Description: as §1

[5] = Dissolution of exploratory combination capsules in simulated gastric fluid (SGF), chiral HPLC; type: physicochemical; conditions: for Average Concentrations of the enantiomer, Experiments SGF (1) and SGF (2) / Concentration of the enantiomer in SGF (1) Vessel / Concentration of the enantiomer in SGF (2) Vessel: combination capsule in 10 mL SGF pH 1.2
Description: Drug Formulation. […] Normal phase, chiral HPLC was used for monitoring the release of R(+) pramipexole and S(−) pramipexole in simulated gastric fluid (SGF).
Dissolution Study. SGF (pH=1.2) was prepared by diluting 1 g of sodium chloride and 7 mL of concentrated HCl to 1 L with HPLC grade water. The dissolution experiment was run as follows: an exploratory combination capsule was placed in 10 mL of SGF and shaken under ambient conditions at 600 RPM for 60 minutes. Aliquots of 100 μL were pulled from the same sample vessel at various time points. The 100 μL samples of SGF solution were evaporated using a nitrogen bleed and heat and the residues were dissolved in the HPLC diluent and filtered through 0.45 μm syringe filters. […] This experiment was performed in duplicate (experiment numbers SGF (1) (see Table 4) and SGF (2) (see Table 5)) and the results are also provided in average values (see Table 6). The tables and figures below summarize the results from these experiments.

dopamine receptors = conditions: present data
[6] = 4320 minutes, stored benchtop in clear vial
[7] = non-naïve male beagle dogs, single oral dose

Chain of human cloned dopamine receptor D2L (P14416 whole entry): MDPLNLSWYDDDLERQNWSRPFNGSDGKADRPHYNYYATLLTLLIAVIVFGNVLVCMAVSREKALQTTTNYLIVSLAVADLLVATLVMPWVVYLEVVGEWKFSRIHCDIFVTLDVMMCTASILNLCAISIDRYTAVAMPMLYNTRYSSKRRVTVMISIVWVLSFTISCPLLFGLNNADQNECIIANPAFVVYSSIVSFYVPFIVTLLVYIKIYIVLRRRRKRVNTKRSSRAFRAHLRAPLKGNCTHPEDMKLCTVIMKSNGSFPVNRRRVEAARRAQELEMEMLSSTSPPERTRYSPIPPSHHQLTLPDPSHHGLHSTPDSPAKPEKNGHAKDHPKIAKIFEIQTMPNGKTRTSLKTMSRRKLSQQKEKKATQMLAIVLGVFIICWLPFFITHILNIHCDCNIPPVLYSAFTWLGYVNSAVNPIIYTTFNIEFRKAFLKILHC
Description for male beagle dogs: Doses were administered orally by gavage and clinical observations were taken continuously following dosing: hourly for the first four hours, and then twice daily cage-side observations for the duration of the inter-dose or post-dose interval. Observations were made of clinical signs, mortality, injury and availability of food and water. Animals were fasted for 24 hr prior to dosing. Dogs in each group were exposed to only one drug, or the combination; each dose was administered only once, with a subsequent dose administered after a recovery period of 4 days.

For `CCCN[C@H]1CCc2nc(N)sc2C1` (single isomer, unassigned) [R(+) pramipexole], the “lower affinity for the D2L receptor subtype than the S(−) enantiomer” value [1] was > 10,000 fold, the “lower affinity for the D2S receptor subtype than the S(−) enantiomer” value [2] was > 10,000 fold and the IC50 [3] was 12 µM. The Ki [3] was 2.7 µM, the “less affinity for the D3 receptor subtype than the S(−) enantiomer” value ([3]; R(+) versus S(−)) was “about 5,000 fold” and the IC50 [4] was over 100 µM. The Ki [4] was over 100 µM, the “Average Concentrations of the enantiomer, Experiments SGF (1) and SGF (2)” value (from here on “Average Concentrations of the enantiomer”) ([5]; 3 minutes) was 0 mg/mL and the “Concentration of the enantiomer in SGF (1) Vessel” value (“Concentration … (1) Vessel” for short) ([5]; 3 minutes) was 0 µg/mL. For the same compound, the “Concentration of the enantiomer in SGF (2) Vessel” value (“Concentration … (2) Vessel” for short) ([5]; 3 minutes) was 0 µg/mL, the “Average Concentrations of the enantiomer” value ([5]; 4 minutes) was 0.002035 mg/mL and the “Concentration … (1) Vessel” value ([5]; 4 minutes) was 1.824 µg/mL. The “Concentration … (2) Vessel” value ([5]; 4 minutes) was 2.245 µg/mL, the “Average Concentrations of the enantiomer” value ([5]; 6 minutes) was 0.06814 mg/mL and the “Concentration … (1) Vessel” value ([5]; 6 minutes) was 42.59 µg/mL. For the same compound, the “Concentration … (2) Vessel” value ([5]; 6 minutes) was 93.7 µg/mL, the “Average Concentrations of the enantiomer” value ([5]; 8 minutes) was 7.346 mg/mL and the “Concentration … (1) Vessel” value ([5]; 8 minutes) was 6441 µg/mL. For the same compound, the “Concentration … (2) Vessel” value ([5]; 8 minutes) was 8250 µg/mL, the “Average Concentrations of the enantiomer” value ([5]; 10 minutes) was 8.615 mg/mL and the “Concentration … (1) Vessel” value ([5]; 10 minutes) was 8443 µg/mL. The “Concentration … (2) Vessel” value ([5]; 10 minutes) was 8787 µg/mL, the “Average Concentrations of the enantiomer” value ([5]; 11 minutes) was 8.938 mg/mL and the “Concentration … (1) Vessel” value ([5]; 11 minutes) was 8746 µg/mL. For the same compound, the “Concentration … (2) Vessel” value ([5]; 11 minutes) was 9131 µg/mL, the “Average Concentrations of the enantiomer” value ([5]; 12 minutes) was 8.927 mg/mL and the “Concentration … (1) Vessel” value ([5]; 12 minutes) was 8767 µg/mL. For the same compound, the “Concentration … (2) Vessel” value ([5]; 12 minutes) was 9086 µg/mL, the “Average Concentrations of the enantiomer” value ([5]; 14 minutes) was 9.164 mg/mL and the “Concentration … (1) Vessel” value ([5]; 14 minutes) was 9236 µg/mL. The “Concentration … (2) Vessel” value ([5]; 14 minutes) was 9092 µg/mL, the “Average Concentrations of the enantiomer” value ([5]; 15 minutes) was 9.463 mg/mL and the “Concentration … (1) Vessel” value ([5]; 15 minutes) was 9510 µg/mL. For the same compound, the “Concentration … (2) Vessel” value ([5]; 15 minutes) was 9416 µg/mL, the “Average Concentrations of the enantiomer” value ([5]; 17 minutes) was 9.438 mg/mL and the “Concentration … (1) Vessel” value ([5]; 17 minutes) was 9398 µg/mL. For the same compound, the “Concentration … (2) Vessel” value ([5]; 17 minutes) was 9477 µg/mL, the “Average Concentrations of the enantiomer” value ([5]; 18 minutes) was 9.258 mg/mL and the “Concentration … (1) Vessel” value ([5]; 18 minutes) was 9127 µg/mL. The “Concentration … (2) Vessel” value ([5]; 18 minutes) was 9390 µg/mL, the “Average Concentrations of the enantiomer” value ([5]; 20 minutes) was 9.475 mg/mL and the “Concentration … (1) Vessel” value ([5]; 20 minutes) was 9457 µg/mL. The “Concentration … (2) Vessel” value ([5]; 20 minutes) was 9493 µg/mL, the “Average Concentrations of the enantiomer” value ([5]; 25 minutes) was 9.61 mg/mL and the “Concentration … (1) Vessel” value ([5]; 25 minutes) was 9579 µg/mL. The “Concentration … (2) Vessel” value ([5]; 25 minutes) was 9641 µg/mL, the “Average Concentrations of the enantiomer” value ([5]; 30 minutes) was 9.65 mg/mL and the “Concentration … (1) Vessel” value ([5]; 30 minutes) was 9894 µg/mL. The “Concentration … (2) Vessel” value ([5]; 30 minutes) was 9406 µg/mL, the “Average Concentrations of the enantiomer” value ([5]; 60 minutes) was 9.127 mg/mL and the “Concentration … (1) Vessel” value ([5]; 60 minutes) was 9530 µg/mL. The “Concentration … (2) Vessel” value ([5]; 60 minutes) was 8725 µg/mL, the “Average Concentrations of the enantiomer” value [5, 6] was 4.163 mg/mL and the “Concentration … (1) Vessel” value [5, 6] was 3624 µg/mL. The “Concentration … (2) Vessel” value [5, 6] was 4702 µg/mL, the “course of release from the capsule” value ([5]; SGF pH 1.2, 60 minutes) was “leveled off after 11 minutes” and the “cause of decrease in concentration at approximately 72 hours” value ([5]; SGF samples stored benchtop in a clear vial) was “light degradation”. For the same compound, the “human dose equivalent to dog MTD” value (male beagle dogs; 70 kg individual) was “about 3,000 mg”, the “MTD greater than for the S(−) enantiomer” value (male beagle dogs; non-naïve dogs) was “about 10,000 fold” and the “NOAEL greater than for the S(−) enantiomer” value (male beagle dogs; non-naïve dogs) was “approximately 20,000 fold”. For the same compound, the MTD (male beagle dogs; [7]) was 75 mg/kg, the NOAEL (male beagle dogs; [7]) was 25 mg/kg and the “less active as a dopamine agonist than the S(−) enantiomer” value (dopamine receptors) was “more than 5,000 fold”.
